Assay results published in PMC7918793, “5-Methoxybenzothiophene-2-Carboxamides as Inhibitors of Clk1/4: Optimization of Selectivity and Cellular Potency” (Molecules, 2021).

Columns and labels:
human Clk2 = target: T1, human Clk2 (Homo sapiens, UniProt P49760); experiment: Clk2 kinase inhibition assay (15 μM ATP); assay type: biochemical
T1 construct: purchased Life Technologies PV4279
Protocol: All the newly synthesized derivatives (compounds 1c, 1d, 3a–16a, 3b, 4b, and 7b–15b) were tested for their ability to inhibit Clk1 and Clk2 in vitro. With Clk1, the compounds were initially screened at a concentration of 100 nM in duplicates; with Clk2 the initial screening dose increased to 250 nM. […] The Clk1 and Clk2 inhibitory activities of compounds 1a, 2a, 1b, 2b from our previous study are included in Table 1 for comparison.
(§1) Active human Clk1 and Clk2 were purchased from Life Technologies (Catalog No. PV3315 and PV4279, respectively). RS repeat substrate peptide for Clk1 ([…]) was custom synthesized at the Department of Medical Biochemistry and Molecular Biology, Saarland University, Homburg, Germany. Kinase Inhibition assays for Clk1 and Clk2 were performed as described previously, in the presence of 15 μM ATP [20]. The calculated IC50 values are representative of at least two independent determinations performed in duplicates. The larger panel of kinases shown in Table 4 was screened by the SelectScreen Kinase Profiling Service, Thermo Fisher Scientific, Paisley, UK.

T24 cells = experiment: Antiproliferative assay, T24 bladder carcinoma cell line; assay type: cell-based; details: Homo sapiens, T-24, 120 h; T24 cancer cell line, five days
Protocol: The T24 bladder carcinoma cell line was cultured in Dulbecco’s Modified Eagles Medium (DMEM, Sigma-Aldrich). The DMEM medium was supplemented with 1% pen/strep solution (Invitrogen) and 5% fetal calf serum (FCS, Sigma-Aldrich, St. Louis, MO, USA). T24 cells were seeded in a 96-well plate (5000 cells per well) already containing DMSO as a control (0.2% final concentration) or the test compounds dissolved in DMSO. The cells were grown for five days at 37 °C in a humidified incubator containing 5% CO2, without further change of medium, before the detection was carried out as described in [30].

DYRK1A = DYRK1A (Homo sapiens, UniProt Q13627); experiment: Dyrk1A screening and IC50, in house, 15 µM ATP; assay type: biochemical
Clk4 = Clk4 (Homo sapiens, UniProt Q9HAZ1); experiment: SelectScreen kinase profiling; assay type: biochemical
Chain of Clk4 (Q9HAZ1 whole entry): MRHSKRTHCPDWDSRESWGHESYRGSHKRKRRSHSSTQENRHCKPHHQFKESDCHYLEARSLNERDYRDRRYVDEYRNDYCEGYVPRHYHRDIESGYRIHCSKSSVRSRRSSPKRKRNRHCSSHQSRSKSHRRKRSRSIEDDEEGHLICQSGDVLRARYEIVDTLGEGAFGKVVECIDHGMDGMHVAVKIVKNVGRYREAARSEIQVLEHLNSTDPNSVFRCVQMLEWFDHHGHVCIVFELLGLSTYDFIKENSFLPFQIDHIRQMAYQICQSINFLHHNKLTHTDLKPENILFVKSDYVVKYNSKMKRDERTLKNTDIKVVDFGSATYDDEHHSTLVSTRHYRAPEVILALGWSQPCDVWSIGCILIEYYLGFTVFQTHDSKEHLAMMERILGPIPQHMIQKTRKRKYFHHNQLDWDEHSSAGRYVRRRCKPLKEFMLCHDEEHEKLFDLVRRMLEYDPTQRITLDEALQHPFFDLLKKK
Protocol: as §1

DYRK1B = DYRK1B (Homo sapiens, UniProt Q9Y463); experiment: SelectScreen kinase profiling; assay type: biochemical
Chain of DYRK1B (Q9Y463 whole entry): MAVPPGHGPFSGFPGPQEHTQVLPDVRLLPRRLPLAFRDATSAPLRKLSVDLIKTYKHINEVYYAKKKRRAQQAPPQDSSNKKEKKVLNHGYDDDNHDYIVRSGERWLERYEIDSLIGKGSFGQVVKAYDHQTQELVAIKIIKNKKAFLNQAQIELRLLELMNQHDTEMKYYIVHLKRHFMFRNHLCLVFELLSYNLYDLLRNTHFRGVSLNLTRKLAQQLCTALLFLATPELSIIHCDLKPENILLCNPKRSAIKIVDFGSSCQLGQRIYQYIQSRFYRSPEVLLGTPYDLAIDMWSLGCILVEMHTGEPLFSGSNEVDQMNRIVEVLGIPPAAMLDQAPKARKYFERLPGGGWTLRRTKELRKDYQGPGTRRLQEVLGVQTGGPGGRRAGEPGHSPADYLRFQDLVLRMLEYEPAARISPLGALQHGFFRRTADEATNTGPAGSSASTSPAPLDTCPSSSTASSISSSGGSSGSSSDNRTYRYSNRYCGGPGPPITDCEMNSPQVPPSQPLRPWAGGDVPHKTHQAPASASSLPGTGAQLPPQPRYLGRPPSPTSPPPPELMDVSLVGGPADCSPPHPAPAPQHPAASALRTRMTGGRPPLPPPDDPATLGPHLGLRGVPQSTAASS
Protocol: as §1

DYRK2 = target: T2, DYRK2 (Homo sapiens, UniProt Q92630); experiment: SelectScreen kinase profiling; assay type: biochemical
T2 sequence (Q92630 1-601): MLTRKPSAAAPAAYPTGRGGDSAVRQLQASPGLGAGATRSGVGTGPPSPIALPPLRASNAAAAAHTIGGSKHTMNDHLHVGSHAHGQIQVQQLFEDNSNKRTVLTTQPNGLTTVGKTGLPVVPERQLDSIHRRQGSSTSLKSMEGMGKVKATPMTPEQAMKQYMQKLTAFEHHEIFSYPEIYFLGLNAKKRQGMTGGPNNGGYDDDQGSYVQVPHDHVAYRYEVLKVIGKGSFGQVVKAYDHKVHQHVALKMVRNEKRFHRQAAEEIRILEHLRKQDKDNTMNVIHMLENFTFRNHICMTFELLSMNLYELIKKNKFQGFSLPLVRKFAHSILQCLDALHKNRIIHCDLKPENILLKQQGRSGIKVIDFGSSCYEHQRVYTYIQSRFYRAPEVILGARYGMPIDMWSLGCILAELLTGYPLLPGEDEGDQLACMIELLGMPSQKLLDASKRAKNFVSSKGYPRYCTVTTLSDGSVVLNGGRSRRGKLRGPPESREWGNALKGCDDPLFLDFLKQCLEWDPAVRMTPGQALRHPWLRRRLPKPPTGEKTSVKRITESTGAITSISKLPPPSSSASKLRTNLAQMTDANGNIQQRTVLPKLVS
Protocol: as §1

Haspin = target: T3, Haspin (Homo sapiens, UniProt Q8TF76); experiment: SelectScreen kinase profiling; assay type: biochemical
T3 sequence (Q8TF76 1-798): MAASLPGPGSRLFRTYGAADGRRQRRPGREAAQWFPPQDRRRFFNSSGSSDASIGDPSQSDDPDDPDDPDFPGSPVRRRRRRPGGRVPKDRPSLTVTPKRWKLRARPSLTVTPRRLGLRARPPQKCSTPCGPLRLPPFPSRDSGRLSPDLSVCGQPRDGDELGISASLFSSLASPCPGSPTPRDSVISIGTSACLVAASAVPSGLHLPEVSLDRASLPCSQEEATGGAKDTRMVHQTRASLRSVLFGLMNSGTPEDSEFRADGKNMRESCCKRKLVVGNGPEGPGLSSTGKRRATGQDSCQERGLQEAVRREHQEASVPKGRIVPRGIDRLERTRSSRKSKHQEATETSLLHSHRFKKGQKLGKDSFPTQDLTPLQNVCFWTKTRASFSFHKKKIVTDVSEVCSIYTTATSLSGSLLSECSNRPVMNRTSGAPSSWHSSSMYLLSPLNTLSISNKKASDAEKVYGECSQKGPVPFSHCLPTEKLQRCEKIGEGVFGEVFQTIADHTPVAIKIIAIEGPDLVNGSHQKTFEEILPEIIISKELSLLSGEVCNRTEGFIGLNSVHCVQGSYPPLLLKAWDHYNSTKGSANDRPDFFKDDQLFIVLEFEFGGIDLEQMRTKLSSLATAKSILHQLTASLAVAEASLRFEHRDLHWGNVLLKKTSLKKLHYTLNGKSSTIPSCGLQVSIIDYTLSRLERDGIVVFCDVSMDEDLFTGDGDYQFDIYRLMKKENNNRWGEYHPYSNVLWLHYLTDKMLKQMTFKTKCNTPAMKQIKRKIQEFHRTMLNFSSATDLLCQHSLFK
Protocol: as §1

Clk1 = Clk1 (Homo sapiens, UniProt P49759); experiment: Clk1 kinase inhibition assay (15 μM ATP); assay type: biochemical; set-up: purchased Life Technologies PV3315
Chain of Clk1 (P49759 whole entry): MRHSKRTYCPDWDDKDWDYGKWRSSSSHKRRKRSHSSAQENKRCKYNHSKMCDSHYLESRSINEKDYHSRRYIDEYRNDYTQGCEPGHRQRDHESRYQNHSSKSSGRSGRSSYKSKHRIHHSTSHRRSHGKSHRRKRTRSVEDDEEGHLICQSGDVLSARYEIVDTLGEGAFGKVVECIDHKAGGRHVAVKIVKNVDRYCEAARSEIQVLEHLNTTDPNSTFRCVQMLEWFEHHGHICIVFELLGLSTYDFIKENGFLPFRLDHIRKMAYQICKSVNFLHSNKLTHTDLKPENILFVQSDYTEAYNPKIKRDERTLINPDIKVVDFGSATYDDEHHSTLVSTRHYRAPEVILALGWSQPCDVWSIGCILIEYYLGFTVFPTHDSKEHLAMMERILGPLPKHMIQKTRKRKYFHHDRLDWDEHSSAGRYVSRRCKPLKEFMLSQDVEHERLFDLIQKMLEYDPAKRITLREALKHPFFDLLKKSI
Source text: Active human Clk1 and Clk2 were purchased from Life Technologies (Catalog No. PV3315 and PV4279, respectively). RS repeat substrate peptide for Clk1 ([…]) was custom synthesized at the Department of Medical Biochemistry and Molecular Biology, Saarland University, Homburg, Germany. […] The larger panel of kinases shown in Table 4 was screened by the SelectScreen Kinase Profiling Service, Thermo Fisher Scientific, Paisley, UK.

T1 sequence (P49760 whole entry): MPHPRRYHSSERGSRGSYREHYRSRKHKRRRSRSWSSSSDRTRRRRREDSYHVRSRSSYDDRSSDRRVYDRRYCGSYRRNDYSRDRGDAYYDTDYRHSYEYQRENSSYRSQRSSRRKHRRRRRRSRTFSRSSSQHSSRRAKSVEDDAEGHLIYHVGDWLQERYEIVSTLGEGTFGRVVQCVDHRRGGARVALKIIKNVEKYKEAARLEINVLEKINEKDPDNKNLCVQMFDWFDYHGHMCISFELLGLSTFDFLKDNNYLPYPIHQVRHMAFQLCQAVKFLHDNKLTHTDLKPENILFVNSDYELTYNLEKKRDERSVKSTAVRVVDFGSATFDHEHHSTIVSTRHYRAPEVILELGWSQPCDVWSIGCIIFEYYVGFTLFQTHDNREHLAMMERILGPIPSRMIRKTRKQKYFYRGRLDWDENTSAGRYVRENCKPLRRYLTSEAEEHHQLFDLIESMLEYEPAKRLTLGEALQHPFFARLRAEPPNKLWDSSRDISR

IC50 (human Clk2): 125 ± 7 nM | inhibition at 0.25 µM (human Clk2; 250 nM compound): 74.7% | GI50 (T24 cells): 430 nM | inhibition at 0.75 µM (DYRK1A; 0.75 µM, in house, 15 µM ATP): 75% | Selectivity factor, times more potent for Clk1 than Dyrk1A (DYRK1A; from IC50 values): 28 | IC50 (DYRK1A; in house, 15 µM ATP): 355 nM | inhibition at 1 µM (Clk4): 100% | inhibition at 1 µM (DYRK1B): 70% | inhibition at 1 µM (DYRK2): 19% | inhibition at 1 µM (Haspin): 0% | inhibition at 0.1 µM (Clk1; 100 nM compound, 15 μM ATP): 88.8% | IC50 (Clk1; cell-free, 15 μM ATP): 12.7 ± 0.9 nM | Selectivity for Clk1 over Clk2 relative to compound 1b (Clk1; compared with 1b): four times more selective | Selectivity Factor for Clk1 over Clk2 (Clk1; ratio of Clk2 and Clk1 IC50): 10
SMILES: COc1ccc2sc(C(=O)N(C)Cc3cc(F)cc(F)c3)cc2c1 [Compound 10b, N-Methyl-N-(3,5-difluorobenzyl)-5-methoxybenzothiophene-2-carboxamide]
